The nature of series [1]: Lipophilicity, Log p by HPLC. It is filed as physicochemical.
For another series, the system named is Mus musculus. Nature of the series: (§1) Toxicity in ip dosed mouse. It is filed as organism-based. The settings on record: in vivo.
Series [2] is described as follows: as §1. It is filed as organism-based. To be noted: in vivo.

For orientation: logP means a log measure of how a compound divides between an organic and an aqueous phase. High values mean higher lipophilicity, low ones lower lipophilicity. In general, LD50 refers to the dose at which mortality reaches 50%. Low values mean a more toxic substance, high ones a less toxic substance.

`O=c1[nH]nc2n(c1=O)CCN2c1ccc(Cl)cc1` showed a logP in series [1] of 1.99. Further, in the series with Mus musculus, the LD worked out at 2000 mg/kg and the “log(1/LD50)” value is recorded as -3.3.

For `Cc1ccccc1N1CCn2c1n[nH]c(=O)c2=O`, the logP in series [1] turned out to be 1.16.

`COc1ccccc1N1CCn2c1n[nH]c(=O)c2=O`: the logP in series [1] came out at 0.97. For the same compound, in the series on Mus musculus, the “log(1/LD50)” value was -3.04.

On to `O=c1[nH]nc2n(c1=O)CCN2c1ccc(Cl)c(Cl)c1`, for which the log partition coefficient (logP) in series [1] came out at 2.63.

As to `O=c1[nH]nc2n(c1=O)CCN2c1ccccc1`, in series [1], the logP was 1.31. The “log(1/LD50)” value in the series with Mus musculus is reported as -3.15.

With `COc1ccc(N2CCn3c2n[nH]c(=O)c3=O)cc1`, the logP in series [1] is 1.21. Moreover, in the series with Mus musculus, the “log(1/LD50)” value is recorded as -3.18.

In series [1], `Cc1ccc(N2CCn3c2n[nH]c(=O)c3=O)cc1` displayed a logP of 1.84. For the same compound, the “log(1/LD50)” value with Mus musculus is -3.25.

As to `O=c1[nH]nc2n(c1=O)CCN2c1cccc(Cl)c1`, the logP in series [1] turned out to be 2. In addition, the “log(1/LD50)” value in the series on Mus musculus is -3.3. The compound further displayed an LD50 in series [2] of 2000 mg/kg.

The values are drawn from ChEMBL document CHEMBL1165863, “Lipophilicity of novel antitumour and analgesic active 8-aryl-2,6,7,8-tetrahydroimidazo[2,1-c][1,2,4]triazine-3,4-dione derivatives determined by reversed-phase HPLC and computational methods” (Eur J Med Chem, 2010).
